As a reminder, the EC50 is the midpoint of the concentration-response curve. By Emax is commonly meant the size of the effect at its maximum, as opposed to the concentration needed.

This is an account of results in patent US10988523B2, “Modified lipidated Relaxin B chain peptides and their therapeutic use” (Sanofi, priority 2018, dated 2021).

This test deals with T1, RXFP1 (Homo sapiens, UniProt Q9HBX9).
T1 construct: OVCAR5 cells expressing endogenous RXFP1; endogenous in cells; host or cells: OVCAR5 cells
T1 sequence (Q9HBX9 1-757): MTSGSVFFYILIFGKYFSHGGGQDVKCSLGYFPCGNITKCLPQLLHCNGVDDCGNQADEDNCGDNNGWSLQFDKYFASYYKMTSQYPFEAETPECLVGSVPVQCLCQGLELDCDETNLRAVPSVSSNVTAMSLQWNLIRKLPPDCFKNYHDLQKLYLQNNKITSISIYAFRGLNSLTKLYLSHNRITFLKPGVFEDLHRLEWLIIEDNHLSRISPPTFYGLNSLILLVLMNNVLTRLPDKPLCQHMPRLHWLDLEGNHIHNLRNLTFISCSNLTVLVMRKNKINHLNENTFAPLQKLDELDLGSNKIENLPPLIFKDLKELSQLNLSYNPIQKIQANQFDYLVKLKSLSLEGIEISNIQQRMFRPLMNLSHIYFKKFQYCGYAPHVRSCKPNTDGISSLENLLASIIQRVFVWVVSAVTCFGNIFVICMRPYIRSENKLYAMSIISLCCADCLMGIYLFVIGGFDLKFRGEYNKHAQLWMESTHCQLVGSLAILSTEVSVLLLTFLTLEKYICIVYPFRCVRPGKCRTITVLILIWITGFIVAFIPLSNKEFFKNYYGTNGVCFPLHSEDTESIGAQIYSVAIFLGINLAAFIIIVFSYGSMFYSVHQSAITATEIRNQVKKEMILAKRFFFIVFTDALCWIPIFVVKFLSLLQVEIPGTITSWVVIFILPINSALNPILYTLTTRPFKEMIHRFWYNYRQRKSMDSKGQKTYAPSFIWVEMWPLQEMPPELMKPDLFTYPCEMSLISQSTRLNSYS
The test is described as follows: OVCAR5 cAMP assay (HTRF), RXFP1 agonist activity. The class given is cell-based. As to conditions: for Emax: OVCAR-5, maximal cAMP relative to H2-relaxin maximum (100%), read-out: EMax, OVCAR 5 cells (cAMP). In outline:
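OVCAR5 cells (endogenous RXFP1) pretreated 40 min at 37° C with 1 mM IBMX, then exposed to peptides in serum-free medium for 30 min at 37° C. Lysate cAMP read by HTRF; EC50 from variable-slope sigmoidal fit; Emax as % of H2-relaxin maximal cAMP in same run.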
On the technique in general: cAMP levels reflect the balance of adenylyl cyclase and phosphodiesterase activity.

*1 amine or outer side, *2 acyl side, *3 side chain or, on linkers, in order; H or OH if unused. Where a SMILES comes first, the peptide text is derived from it. Side-chain parts run from the residue outwards. [ ]: non-standard residue; d: D form. The star is where a group is joined. PEG12 = NCCOCCOCCOCCOCCOCCOCCOCCOCCOCCOCCOCCOCCC(=O)O; PEG8 = NCCOCCOCCOCCOCCOCCOCCOCCOCCC(=O)O; γGlu = O=C(O)[C@H](CCC(=O)[*:2])N[*:1]; Stearoyl = CCCCCCCCCCCCCCCCCC(=O)*; Palmitoyl = CCCCCCCCCCCCCCCC(=O)*; Cit = NC(=O)NCCC[C@H](N)C(=O)O; Nle = CCCC[C@H](N)C(=O)O; AEEA = NCCOCCOCC(=O)O; Aib = CC(C)(N)C(=O)O

With “174 (Ac-LEGREKVRAQI[Aib][Aib]EG[Nle]STWS[Aib]RKKK-NH2; not fully specified (residue 25); printed as Ac-L-E-G-R-E-K-V-R-A-Q-I-Aib-Aib-E-G-Nle-S-T-W-S-Aib-R-K-K-K(PEG2-PEG2-PEG2-gE-gE-gE-Stea)-NH2) [compound 174]”, the EC50 (OVCAR5 cells, cAMP HTRF, read-out: EC50 (nM), OVCAR 5 cells (cAMP)) amounted to 0.41 nM.

Regarding `CCCCCCCCCCCCCCCCCC(=O)N[C@@H](CCC(=O)N[C@@H](CCC(=O)N[C@@H](CCC(=O)NCCCC[C@H](NC(=O)CCOCCOCCOCCOCCOCCOCCOCCOCCOCCOCCOCCOCCNC(=O)[C@H](CCCCN)NC(=O)[C@H](CCCNC(=N)N)NC(=O)C(C)(C)NC(=O)[C@H](CO)NC(=O)[C@H](Cc1c[nH]c2ccccc12)NC(=O)[C@@H](NC(=O)[C@H](CO)NC(=O)[C@H](CCSC)NC(=O)CNC(=O)[C@H](CCC(=O)O)NC(=O)C(C)(C)NC(=O)C(C)(C)NC(=O)[C@@H](NC(=O)[C@H](CCCCNC(C)=O)NC(=O)[C@H](C)NC(=O)[C@H](CCCNC(=N)N)NC(=O)[C@@H](NC(=O)[C@H](CCCCN)NC(=O)[C@H](CCC(=O)O)NC(=O)[C@H](CCCNC(=N)N)NC(=O)CNC(=O)[C@H](CCC(=O)O)NC(=O)[C@H](CC(C)C)NC(C)=O)C(C)C)[C@@H](C)CC)[C@@H](C)O)C(N)=O)C(=O)O)C(=O)O)C(=O)O` [compound 35] (Ac-LEGREKVRAK(Ac)I[Aib][Aib]EGMSTWS[Aib]RK[PEG12]K([γGlu-γGlu-γGlu-Stearoyl])-NH2), the Emax came out at 95%. Take `CCCCCCCCCCCCCCCCCC(=O)NCCOCCOCC(=O)NCCOCCOCC(=O)NCCCC[C@H](NC(=O)[C@H](CCCCNC(C)=O)NC(=O)[C@H](CCCCN)NC(=O)[C@H](CCCNC(=N)N)NC(=O)C(C)(C)NC(=O)[C@H](CO)NC(=O)[C@H](Cc1c[nH]c2ccccc12)NC(=O)[C@@H](NC(=O)[C@H](CO)NC(=O)[C@H](CCCC)NC(=O)CNC(=O)[C@H](CCC(=O)O)NC(=O)C(C)(C)NC(=O)C(C)(C)NC(=O)[C@@H](NC(=O)[C@H](CCC(N)=O)NC(=O)[C@H](C)NC(=O)[C@H](CCCNC(=N)N)NC(=O)[C@@H](NC(=O)[C@H](CCCCN)NC(=O)[C@H](CCC(=O)O)NC(=O)[C@H](CCCNC(=N)N)NC(=O)CNC(=O)[C@H](CCC(=O)O)NC(=O)[C@H](CC(C)C)NC(C)=O)C(C)C)[C@@H](C)CC)[C@@H](C)O)C(N)=O` [compound 51] (Ac-LEGREKVRAQI[Aib][Aib]EG[Nle]STWS[Aib]RKK(Ac)K([AEEA-AEEA-Stearoyl])-NH2): the Emax is 100%. As for `CCCCCCCCCCCCCCCC(=O)N[C@@H](CCC(=O)N[C@@H](CCC(=O)N[C@@H](CCC(=O)NCCCC[C@H](NC(=O)CCOCCOCCOCCOCCOCCOCCOCCOCCNC(=O)[C@H](CCCCNC(C)=O)NC(=O)[C@H](CCCCN)NC(=O)[C@H](CCCNC(=N)N)NC(=O)C(C)(C)NC(=O)[C@H](CO)NC(=O)[C@H](Cc1c[nH]c2ccccc12)NC(=O)[C@@H](NC(=O)[C@H](CO)NC(=O)[C@H](CCCC)NC(=O)CNC(=O)[C@H](CCC(=O)O)NC(=O)C(C)(C)NC(=O)C(C)(C)NC(=O)[C@@H](NC(=O)[C@H](CCCCNC(C)=O)NC(=O)[C@H](C)NC(=O)[C@H](CCCNC(=N)N)NC(=O)[C@@H](NC(=O)[C@H](CCCCN)NC(=O)[C@H](CCC(=O)O)NC(=O)[C@H](CCCNC(=N)N)NC(=O)CNC(=O)[C@H](CCC(=O)O)NC(=O)[C@H](CC(C)C)NC(C)=O)C(C)C)[C@@H](C)CC)[C@@H](C)O)C(N)=O)C(=O)O)C(=O)O)C(=O)O` [compound 181] (Ac-LEGREKVRAK(Ac)I[Aib][Aib]EG[Nle]STWS[Aib]RKK(Ac)[PEG8]K([γGlu-γGlu-γGlu-Palmitoyl])-NH2), the maximal effect (Emax) is 79%. Regarding `CCCCCCCCCCCCCCCCCC(=O)N[C@@H](CCC(=O)N[C@@H](CCC(=O)N[C@@H](CCC(=O)NCCOCCOCC(=O)NCCOCCOCC(=O)NCCOCCOCC(=O)NCCCC[C@H](NC(=O)[C@H](CCCCNC(C)=O)NC(=O)[C@H](C)NC(=O)[C@H](CCCNC(N)=O)NC(=O)C(C)(C)NC(=O)[C@H](CO)NC(=O)[C@H](Cc1c[nH]c2ccccc12)NC(=O)[C@@H](NC(=O)[C@H](CO)NC(=O)[C@H](CCCC)NC(=O)CNC(=O)[C@H](CCC(=O)O)NC(=O)C(C)(C)NC(=O)C(C)(C)NC(=O)[C@@H](NC(=O)[C@H](CCCCNC(C)=O)NC(=O)[C@H](C)NC(=O)[C@H](CCCNC(=N)N)NC(=O)[C@@H](NC(=O)[C@H](CCCCN)NC(=O)[C@H](CCC(=O)O)NC(=O)[C@H](CCCNC(=N)N)NC(=O)CNC(=O)[C@H](CCC(=O)O)NC(=O)[C@H](CC(C)C)NC(C)=O)C(C)C)[C@@H](C)CC)[C@@H](C)O)C(N)=O)C(=O)O)C(=O)O)C(=O)O` [compound 126] (Ac-LEGREKVRAK(Ac)I[Aib][Aib]EG[Nle]STWS[Aib][Cit]AK(Ac)K([AEEA-AEEA-AEEA-γGlu-γGlu-γGlu-Stearoyl])-NH2), the Emax came out at 91%. As to `CCCCCCCCCCCCCCCCCC(=O)N[C@@H](CCC(=O)NCCOCCOCC(=O)NCCOCCOCC(=O)NCCOCCOCC(=O)N[C@@H](CCC(=O)N[C@@H](CCC(=O)NCCCC[C@H](NC(=O)[C@H](CCCCN)NC(=O)[C@H](CCCCN)NC(=O)[C@H](CCCNC(=N)N)NC(=O)C(C)(C)NC(=O)[C@H](CO)NC(=O)[C@H](Cc1c[nH]c2ccccc12)NC(=O)[C@@H](NC(=O)[C@H](CO)NC(=O)[C@H](CCCC)NC(=O)CNC(=O)[C@H](CCC(=O)O)NC(=O)C(C)(C)NC(=O)C(C)(C)NC(=O)[C@@H](NC(=O)[C@H](CCC(N)=O)NC(=O)[C@H](C)NC(=O)[C@H](CCCNC(=N)N)NC(=O)[C@@H](NC(=O)[C@H](CCCCN)NC(=O)[C@H](CCC(=O)O)NC(=O)[C@H](CCCNC(=N)N)NC(=O)CNC(=O)[C@H](CCC(=O)O)NC(=O)[C@H](CC(C)C)NC(C)=O)C(C)C)[C@@H](C)CC)[C@@H](C)O)C(N)=O)C(=O)O)C(=O)O)C(=O)O` [compound 106] (Ac-LEGREKVRAQI[Aib][Aib]EG[Nle]STWS[Aib]RKKK([γGlu-γGlu-AEEA-AEEA-AEEA-γGlu-Stearoyl])-NH2), the Emax was found to be 93%. On the same count and under the same terms, the result for `CCCCCCCCCCCCCCCCCC(=O)NCCOCCOCC(=O)N[C@@H](CCC(=O)N[C@@H](CCC(=O)N[C@@H](CCC(=O)NCCOCCOCC(=O)NCCOCCOCC(=O)NCCCC[C@H](NC(=O)[C@H](CCCCN)NC(=O)[C@H](CCCCN)NC(=O)[C@H](CCCNC(=N)N)NC(=O)C(C)(C)NC(=O)[C@H](CO)NC(=O)[C@H](Cc1c[nH]c2ccccc12)NC(=O)[C@@H](NC(=O)[C@H](CO)NC(=O)[C@H](CCCC)NC(=O)CNC(=O)[C@H](CCC(=O)O)NC(=O)C(C)(C)NC(=O)C(C)(C)NC(=O)[C@@H](NC(=O)[C@H](CCC(N)=O)NC(=O)[C@H](C)NC(=O)[C@H](CCCNC(=N)N)NC(=O)[C@@H](NC(=O)[C@H](CCCCN)NC(=O)[C@H](CCC(=O)O)NC(=O)[C@H](CCCNC(=N)N)NC(=O)CNC(=O)[C@H](CCC(=O)O)NC(=O)[C@H](CC(C)C)NC(C)=O)C(C)C)[C@@H](C)CC)[C@@H](C)O)C(N)=O)C(=O)O)C(=O)O)C(=O)O` [compound 98] (Ac-LEGREKVRAQI[Aib][Aib]EG[Nle]STWS[Aib]RKKK([AEEA-AEEA-γGlu-γGlu-γGlu-AEEA-Stearoyl])-NH2) reads 99%; that for `CCCCCCCCCCCCCCCCCC(=O)N[C@@H](CCC(=O)NCCOCCOCC(=O)NCCOCCOCC(=O)NCCCC[C@H](NC(=O)[C@H](CCCCN)NC(=O)[C@H](CCCNC(=N)N)NC(=O)C(C)(C)NC(=O)[C@H](CO)NC(=O)[C@H](Cc1c[nH]c2ccccc12)NC(=O)[C@@H](NC(=O)[C@H](CO)NC(=O)[C@H](CCCC)NC(=O)CNC(=O)[C@H](CCC(=O)O)NC(=O)C(C)(C)NC(=O)C(C)(C)NC(=O)[C@@H](NC(=O)[C@H](CCC(N)=O)NC(=O)[C@H](C)NC(=O)[C@H](CCCNC(=N)N)NC(=O)[C@@H](NC(=O)[C@H](CCCCN)NC(=O)[C@H](CCC(=O)O)NC(=O)[C@H](CCCNC(=N)N)NC(=O)CNC(=O)[C@H](CCC(=O)O)NC(=O)[C@H](CC(C)C)NC(C)=O)C(C)C)[C@@H](C)CC)[C@@H](C)O)C(N)=O)C(=O)O` [compound 56] (Ac-LEGREKVRAQI[Aib][Aib]EG[Nle]STWS[Aib]RKK([AEEA-AEEA-γGlu-Stearoyl])-NH2), 95%. For the molecule `CCCCCCCCCCCCCCCC(=O)N[C@@H](CCC(=O)N[C@@H](CCC(=O)NCCOCCOCC(=O)NCCCC[C@H](NC(=O)[C@H](CCCCN)NC(=O)[C@H](CCCNC(=N)N)NC(=O)C(C)(C)NC(=O)[C@H](CO)NC(=O)[C@H](Cc1c[nH]c2ccccc12)NC(=O)[C@@H](NC(=O)[C@H](CO)NC(=O)[C@H](CCCC)NC(=O)CNC(=O)[C@H](CCC(=O)O)NC(=O)C(C)(C)NC(=O)C(C)(C)NC(=O)[C@@H](NC(=O)[C@H](C)NC(=O)[C@H](C)NC(=O)[C@H](CCCNC(=N)N)NC(=O)[C@@H](NC(=O)[C@H](CCCCN)NC(=O)[C@H](CCC(=O)O)NC(=O)[C@H](CCCNC(=N)N)NC(=O)CNC(=O)[C@H](CCC(=O)O)NC(=O)[C@H](CC(C)C)NC(=O)[C@H](CCC(=O)O)NC(C)=O)C(C)C)[C@@H](C)CC)[C@@H](C)O)C(N)=O)C(=O)O)C(=O)O` [compound 54] (Ac-ELEGREKVRAAI[Aib][Aib]EG[Nle]STWS[Aib]RKK([AEEA-γGlu-γGlu-Palmitoyl])-NH2), the Emax is 98%.
